The results in this text go back to ChEMBL document CHEMBL1144273, “Synthesis and SAR studies of 3-phenoxypropyl piperidine analogues as ORL1 (NOP) receptor agonists” (Bioorg Med Chem Lett, 2005).

The test system of this assay is Mus musculus. Nature of the assay: In vivo effective dose against mouse formalin paw after intravenous administration of the compound. The format is functional.

A word on the ED50: it is the dose that gives a 50% effect, or the effect in half of the subjects. A low value points to greater potency. `COc1ccc(C)c(OC(CCN2CCC(n3c(=O)[nH]c4ccccc43)CC2)C(C)C)c1` (stereo unspecified) [ORGANON] gave an ED50 of 1.07 µmol/kg.
